Assay results reported in article PMC10784468 (Nature Communications, 2024).
Positions of bridges follow the written chain, without caps; N, C: chain ends. Residues, ends and D or L forms follow the SMILES beside them. *: point of attachment. X1 = O=C(O)c1ccc(-c2c3nc(c(-c4ccc(C(=O)O)cc4)c4ccc([nH]4)c(-c4ccc(C(=O)*)cc4)c4nc(c(-c5ccc(C(=O)O)cc5)c5ccc2[nH]5)C=C4)C=C3)cc1; X2 = O=C(O)C/C(=C/C(=O)*)C(=O)O

Experiments:
EJ tumor tissues [1] = experiment: Tumor GSH content detection; assay type: in vivo, BALB/c nude mice; conditions: for Relative content of GSH: tumor
Description: (§1) EJ tumor tissues were collected under euthanasia at the end of treatment and washed with PBS for 3 times. Afterwards, the tumor lysates were collected by centrifugation at 8000 rpm for 10 min at 4 °C after lysed with Frozen Type Tissuelyser. Finally, the GSH contents were measured with a GSH Assay Kit based on the manufacturer’s instructions.

GPX4 = biological target: T1, GPX4 (Homo sapiens, UniProt P36969); experiment: Tumor GPX4 activity detection; assay type: in vivo, BALB/c nude mice; design: from tissue; host or cells: EJ xenograft tumour tissue from BALB/c nude mice
T1 sequence (P36969 1-197): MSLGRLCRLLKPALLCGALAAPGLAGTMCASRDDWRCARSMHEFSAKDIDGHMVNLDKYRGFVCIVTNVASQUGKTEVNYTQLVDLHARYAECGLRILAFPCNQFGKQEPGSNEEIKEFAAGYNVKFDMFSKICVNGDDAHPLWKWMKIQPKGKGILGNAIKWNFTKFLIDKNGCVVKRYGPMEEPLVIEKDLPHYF
Description: as §1, with “5000” for “8000”, “by freeze-thaw treatment.” for “with Frozen Type Tissuelyser.”, “GPX4 activity” for “GSH contents”, “GPX” for “GSH”

ζ-potential in PBS = assay type: physicochemical
Description: Supplementary Fig. 12. ζ-potential change of Gi-F-CAA (40 μM) in PBS (0.01 M, pH 7.4 or 6.5) (n=3
experimental repeats). Experiment was independently repeated three times with similar results. Values are
(1 picture or pasted object on this page, not shown here)
Supplementary Fig. 13. ζ-potential of NGi-F-CAA, Gi-F and Gi-F-SA (pH 7.4) (40 μM) in PBS (n=3

EJ cells = experiment: Cytotoxicity assay (CCK-8) on EJ cells; conditions: for IC50: pH 7.4
Description: Initially, EJ cells were seeded into 96 well plates at a density of 5 × 10^3 per well and incubated in a CO2 incubator overnight at 37 °C. Subsequently, Gi-F (pH = 7.4), Gi-F-SA (pH = 7.4), NGi-F-CAA (pH = 7.4), NGi-F-CAA (pH = 6.5), Gi-F-CAA (pH = 7.4) and Gi-F-CAA (pH = 6.5) at different concentrations (1, 2, 4, 8, 16, 32, 64, 128 and 256 μM) was added to the cells and further incubated for 48 h. Finally, the cell viability rate was calculated by (Sample wells-Blank wells)/(Control wells-Blank wells) × 100%.

EJ xenograft tumor = experiment: Penetration assay in tumor frozen sections (Cy labeled)
Description: Firstly, EJ xenograft mice were administrated with Cy labeled Gi-F (8 mg/kg in 100 μL PBS) and Cy labeled Gi-F-CAA (8 mg/kg in 100 μL PBS) by intravenous injection. Afterward, EJ tumor tissues were entirely resected and protected from light. Subsequently, the tumor tissues were fixed with optimum cutting temperature (OCT) compound for 12 h at −20 °C avoiding light. Finally, the fixed tumor tissues were cut into sections and immediately observed with UltraVIEW VoX.

EJ xenograft tumors = experiment: In vivo antitumor evaluation in EJ xenograft model (tumor volume, tumor weight, body weight); conditions: 8 mg/kg i.v.; for mean tumor volume at 18 days post injection: six injections at 2-days intervals, n = 6; for Tumor weight: six injections, 18 days
Description: Female BALB/c nude mice (~8 weeks, 18 g) were subcutaneously inoculated with 5 × 10^6 EJ cells resuspended in Matrigel. When the tumor size reached about 100 mm^3, EJ tumor-bearing mice were randomly divided into four groups and administrated with PBS, Gi-F (8 mg/kg in 100 μL PBS), Gi-F-SA (8 mg/kg in 100 μL PBS) and Gi-F-CAA (8 mg/kg in 100 μL PBS) by intravenous injection at 2-days intervals for six times. Individual tumor volume and bodyweight of mouse after different treatment was collected at 2-days intervals for analysis. Mice were killed at 18 days post treatment unless endpoints were exceeded. Moreover, tumors from all groups were harvested under euthanasia and weighed for analysis at the end of treatment.

EJ tumor tissues [2] = experiment: Tumor MDA content detection; assay type: in vivo, BALB/c nude mice; conditions: for Relative content of MDA: tumor
Description: as §1, with “8000 g” for “8000 rpm”, “the MDA” for “the GSH”, “measured by thiobarbituric acid (TBA) reaction” for “measured”, “a Malondialdehyde (MDA)” for “a GSH”, “Kit (Solarbio Science & Technology Co., Ltd., China, BC0025)” for “Kit”

[3] = EJ tumor tissues, 8 mg/kg i.v., versus PBS, Gi-F and Gi-F-SA
[4] = 40 μM in PBS, pH 7.4, mean of n = 3

Molecule: CC(C)C[C@H](NC(=O)c1ccc(-c2c3nc(c(-c4ccc(C(=O)O)cc4)c4ccc([nH]4)c(-c4ccc(C(=O)O)cc4)c4nc(c(-c5ccc(C(=O)O)cc5)c5ccc2[nH]5)C=C4)C=C3)cc1)C(=O)N[C@@H](CCCCNC(=O)/C=C(/CC(=O)O)C(=O)O)C(=O)N[C@@H](CC(C)C)C(=O)N[C@@H](CCCCN)C(=O)N[C@@H](CC(C)C)C(=O)N[C@@H](CCCCNC(=O)/C=C(/CC(=O)O)C(=O)O)C(=O)NCC(=O)N[C@@H](C)C(=O)N[C@H]1CSSC[C@@H](C(=O)N2CCC[C@H]2C(=O)N[C@H](C(=O)O)C(C)C)NC(=O)[C@@H]2CCCN2C(=O)[C@H](Cc2ccc(O)cc2)NC(=O)[C@H](CC(C)C)NC(=O)[C@@H]2CCCN2C(=O)[C@H](CC(C)C)NC(=O)[C@H](Cc2c[nH]c3ccccc23)NC(=O)[C@H](CC(N)=O)NC1=O [Gi-F-CAA] (X1-LK(X2)LKLK(X2)GACNWLPLYPCPV-OH; disulfide 9-17; C-terminus assumed)
- GSH levels of tumor tissues (EJ tumor tissues [1]; [3]): substantial reduction of GSH levels
- Relative content of GSH (EJ tumor tissues [1]; mice 1): 0.248
- Relative content of GSH (EJ tumor tissues [1]; mice 2): 0.322
- Relative content of GSH (EJ tumor tissues [1]; mice 3): 0.359
- Relative content of GSH (EJ tumor tissues [1]; mice 4): 0.285
- Relative content of GSH (EJ tumor tissues [1]; mice 5): 0.331
- Relative content of GSH (EJ tumor tissues [1]; mice 6): 0.276
- Relative activity of GPX4 (GPX4; mice 1): 0.21
- Relative activity of GPX4 (GPX4; mice 2): 0.22
- Relative activity of GPX4 (GPX4; mice 3): 0.2
- Relative activity of GPX4 (GPX4; mice 4): 0.21
- Relative activity of GPX4 (GPX4; mice 5): 0.22
- Relative activity of GPX4 (GPX4; mice 6): 0.2
- ζ-potential change after incubation at pH 6.5 (ζ-potential in PBS; 40 μM in PBS 0.01 M, pH 6.5): increased considerably
- Zeta potential (mV) (ζ-potential in PBS; pH 6.5, 0 min, mean): -25.5 mV
- Zeta potential (mV) (ζ-potential in PBS; pH 6.5, 10 min, mean): -19.8 mV
- Zeta potential (mV) (ζ-potential in PBS; pH 6.5, 30 min, mean): -12.4 mV
- Zeta potential (mV) (ζ-potential in PBS; pH 6.5, 60 min, mean): -7.6 mV
- Zeta potential (mV) (ζ-potential in PBS; pH 6.5, 90 min, mean): -6.4 mV
- Zeta potential (mV) (ζ-potential in PBS; pH 6.5, 120 min, mean): -5.5 mV
- Zeta potential (mV) (ζ-potential in PBS; pH 7.4, 0 min, mean): -27.3 mV
- Zeta potential (mV) (ζ-potential in PBS; pH 7.4, 10 min, mean): -25.6 mV
- Zeta potential (mV) (ζ-potential in PBS; pH 7.4, 30 min, mean): -24.4 mV
- Zeta potential (mV) (ζ-potential in PBS; pH 7.4, 60 min, mean): -23.4 mV
- Zeta potential (mV) (ζ-potential in PBS; pH 7.4, 90 min, mean): -22.6 mV
- Zeta potential (mV) (ζ-potential in PBS; pH 7.4, 120 min, mean): -22.5 mV
- cytotoxicity with ferroptosis inhibitor Fer-1 (EJ cells; EJ cells, pH 6.5, 48 h, Fer-1, Supplementary Fig. 26): successfully rescued by Fer-1
- tumor penetration, fluorescence distribution in tumor sections (EJ xenograft tumor; EJ xenograft mice, Cy-labeled, 8 mg/kg i.v.): distributed all over the tumor tissues
- mean tumor volume at 18 days post injection (EJ xenograft tumors): 552 mm^3
- Tumor weight (EJ xenograft tumors; mice 1): 0.398 g
- Tumor weight (EJ xenograft tumors; mice 2): 0.419 g
- Tumor weight (EJ xenograft tumors; mice 3): 0.47 g
- Tumor weight (EJ xenograft tumors; mice 4): 0.318 g
- Tumor weight (EJ xenograft tumors; mice 5): 0.548 g
- Tumor weight (EJ xenograft tumors; mice 6): 0.402 g
- LPO levels of tumor tissues (EJ tumor tissues [2]; [3]): elevation
- Relative content of MDA (EJ tumor tissues [2]; mice 1): 4.75
- Relative content of MDA (EJ tumor tissues [2]; mice 2): 4.25
- Relative content of MDA (EJ tumor tissues [2]; mice 3): 4.65
- Relative content of MDA (EJ tumor tissues [2]; mice 4): 5.15
- Relative content of MDA (EJ tumor tissues [2]; mice 5): 4.25
- Relative content of MDA (EJ tumor tissues [2]; mice 6): 4.75

Molecule: FeTCPP-LKLKLK(SA)GACNWLPLYPCPV (disulfide) [Gi-F-SA, control conjugate decorated with non-sensitive succinic anhydride (SA) moieties]
- Relative content of GSH (EJ tumor tissues [1]; mice 1): 0.8
- Relative content of GSH (EJ tumor tissues [1]; mice 2): 0.832
- Relative content of GSH (EJ tumor tissues [1]; mice 3): 0.874
- Relative content of GSH (EJ tumor tissues [1]; mice 4): 0.837
- Relative content of GSH (EJ tumor tissues [1]; mice 5): 0.887
- Relative content of GSH (EJ tumor tissues [1]; mice 6): 0.74
- Relative activity of GPX4 (GPX4; mice 1): 0.79
- Relative activity of GPX4 (GPX4; mice 2): 0.8
- Relative activity of GPX4 (GPX4; mice 3): 0.76
- Relative activity of GPX4 (GPX4; mice 4): 0.79
- Relative activity of GPX4 (GPX4; mice 5): 0.8
- Relative activity of GPX4 (GPX4; mice 6): 0.76
- Zeta potential (mV) (ζ-potential in PBS; [4]): -21.4 mV
- IC50 (EJ cells): 40 µM
- tumor penetration, fluorescence distribution in tumor sections (EJ xenograft tumor; mouse, in vivo, iv, 8 mg/kg): penetrate into the tumor interior, while in a week fluorescence intensity
- mean tumor volume at 18 days post injection (EJ xenograft tumors): 1204 mm^3
- Tumor weight (EJ xenograft tumors; mice 1): 1.819 g
- Tumor weight (EJ xenograft tumors; mice 2): 1.454 g
- Tumor weight (EJ xenograft tumors; mice 3): 1.391 g
- Tumor weight (EJ xenograft tumors; mice 4): 1.595 g
- Tumor weight (EJ xenograft tumors; mice 5): 1.425 g
- Tumor weight (EJ xenograft tumors; mice 6): 1.689 g
- Relative content of MDA (EJ tumor tissues [2]; mice 1): 1.35
- Relative content of MDA (EJ tumor tissues [2]; mice 2): 1.45
- Relative content of MDA (EJ tumor tissues [2]; mice 3): 1.2
- Relative content of MDA (EJ tumor tissues [2]; mice 4): 1.75
- Relative content of MDA (EJ tumor tissues [2]; mice 5): 1.45
- Relative content of MDA (EJ tumor tissues [2]; mice 6): 1.3

Molecule: FeTCPP-LKLKLKGACNWLPLYPCPV (disulfide) [Gi-F]
- Relative content of GSH (EJ tumor tissues [1]; mice 1): 0.74
- Relative content of GSH (EJ tumor tissues [1]; mice 2): 0.713
- Relative content of GSH (EJ tumor tissues [1]; mice 3): 0.713
- Relative content of GSH (EJ tumor tissues [1]; mice 4): 0.681
- Relative content of GSH (EJ tumor tissues [1]; mice 5): 0.676
- Relative content of GSH (EJ tumor tissues [1]; mice 6): 0.763
- Relative activity of GPX4 (GPX4; mice 1): 0.57
- Relative activity of GPX4 (GPX4; mice 2): 0.52
- Relative activity of GPX4 (GPX4; mice 3): 0.57
- Relative activity of GPX4 (GPX4; mice 4): 0.57
- Relative activity of GPX4 (GPX4; mice 5): 0.52
- Relative activity of GPX4 (GPX4; mice 6): 0.57
- Zeta potential (mV) (ζ-potential in PBS; [4]): -8.4 mV
- IC50 (EJ cells): 11.3 µM
- tumor penetration, fluorescence distribution in tumor sections (EJ xenograft tumor; mouse, in vivo, iv, 8 mg/kg): only distributed around the periphery of tumor tissues
- mean tumor volume at 18 days post injection (EJ xenograft tumors): 1426 mm^3
- Tumor weight (EJ xenograft tumors; mice 1): 1.433 g
- Tumor weight (EJ xenograft tumors; mice 2): 1.25 g
- Tumor weight (EJ xenograft tumors; mice 3): 1.087 g
- Tumor weight (EJ xenograft tumors; mice 4): 1.055 g
- Tumor weight (EJ xenograft tumors; mice 5): 0.939 g
- Tumor weight (EJ xenograft tumors; mice 6): 1.259 g
- Relative content of MDA (EJ tumor tissues [2]; mice 1): 2.1
- Relative content of MDA (EJ tumor tissues [2]; mice 2): 2.6
- Relative content of MDA (EJ tumor tissues [2]; mice 3): 2.35
- Relative content of MDA (EJ tumor tissues [2]; mice 4): 2.5
- Relative content of MDA (EJ tumor tissues [2]; mice 5): 2.3
- Relative content of MDA (EJ tumor tissues [2]; mice 6): 2.45
